The NIST ThermoML archive (doi:10.1021/je100909b)

Test: mn = molality of the nth substance listed, in mol/kg
Details: 101 kPa, Liquid; for mass density: Vibrating tube method

[Cl][Cd][Cl] [cadmium chloride] + O
Details	mass density [kg/m3]	speed of sound [m/s]	viscosity [mPa·s]
288.15 K, m1 = 0.1	1015.69	1479	1.144
288.15 K, m1 = 0.5	1077.05	1484	1.223
288.15 K, m1 = 1	1149.37	1492.8	1.334
288.15 K, m1 = 1.5	1205.71	1496.2	1.472
298.15 K, m1 = 0.1	1012.89	1501.6	0.926
298.15 K, m1 = 0.5	1072.65	1507.2	1.036
298.15 K, m1 = 1	1140.72	1511.4	1.16
298.15 K, m1 = 1.5	1199.85	1514.4	1.226
308.15 K, m1 = 0.1	1009.59	1522.4	0.7258
308.15 K, m1 = 0.5	1068.5	1525.2	0.8259
308.15 K, m1 = 1	1135.37	1527.4	0.9138
308.15 K, m1 = 1.5	1193.02	1530.2	0.9824
318.15 K, m1 = 0.1	1005.51	1538.6	0.6097
318.15 K, m1 = 0.5	1063.8	1541.8	0.6739
318.15 K, m1 = 1	1129.17	1543.2	0.7467
318.15 K, m1 = 1.5	1186	1546.2	0.8197

CC(C)C[C@H](N)C(=O)O [L-leucine] + O
speed of sound [m/s], Sing-around technique in a fixed-path interferometer
Details	m1 = 0.01941	m1 = 0.02155	m1 = 0.0281	m1 = 0.03296	m1 = 0.04083	m1 = 0.05231	m1 = 0.06632	m1 = 0.07033
288.15 K	–	1468.6	1469.5	1470.1	1471.1	–	1474.4	1475
298.15 K	1498.8	–	1499.9	1500.5	–	1502.7	1504.4	–
308.15 K	–	–	–	1523.2	1524.1	1525.2	1526.7	1527.1
318.15 K	–	–	1539.1	1539.5	1540.2	1541.3	1542.6	1543

Details	viscosity [mPa·s]
288.15 K, m1 = 0.01977	1.151
288.15 K, m1 = 0.02401	1.153
288.15 K, m1 = 0.03189	1.158
288.15 K, m1 = 0.04067	1.163
288.15 K, m1 = 0.04511	1.166
288.15 K, m1 = 0.0503	1.169
298.15 K, m1 = 0.02228	0.9009
298.15 K, m1 = 0.03694	0.9076
298.15 K, m1 = 0.04045	0.9094
298.15 K, m1 = 0.05353	0.9156
298.15 K, m1 = 0.06724	0.9222
298.15 K, m1 = 0.08113	0.928
308.15 K, m1 = 0.0193	0.7262
308.15 K, m1 = 0.02231	0.7271
308.15 K, m1 = 0.03116	0.7301
308.15 K, m1 = 0.03988	0.7332
308.15 K, m1 = 0.04441	0.7347
308.15 K, m1 = 0.05005	0.7366
318.15 K, m1 = 0.01898	0.6012
318.15 K, m1 = 0.02214	0.602
318.15 K, m1 = 0.03098	0.6043
318.15 K, m1 = 0.03968	0.6064
318.15 K, m1 = 0.04439	0.6076
318.15 K, m1 = 0.04995	0.6092

CCC(N)C(=O)O (stereo not drawn) [(.+-.)-α-aminobutyric acid] + O
speed of sound [m/s], Sing-around technique in a fixed-path interferometer
Details	m1 = 0.05062	m1 = 0.1107	m1 = 0.2175	m1 = 0.2738	m1 = 0.3587	m1 = 0.4523
288.15 K	1469.9	1474.7	1483.4	1488	1494.9	1502.7
298.15 K	–	1505.2	1513.6	1518	1524.7	1532.1
308.15 K	1523.4	1527.7	1535.4	1539.4	1545.5	1552.3
318.15 K	1539.9	1544	1551.2	1555.1	1560.9	1567.3

Details	viscosity [mPa·s]
288.15 K, m1 = 0.05106	1.159
288.15 K, m1 = 0.09089	1.181
288.15 K, m1 = 0.1764	1.22
288.15 K, m1 = 0.2253	1.242
288.15 K, m1 = 0.2685	1.262
288.15 K, m1 = 0.4044	1.324
298.15 K, m1 = 0.03245	0.8996
298.15 K, m1 = 0.05413	0.9064
298.15 K, m1 = 0.07577	0.9126
298.15 K, m1 = 0.108	0.9222
298.15 K, m1 = 0.1433	0.9326
298.15 K, m1 = 0.1888	0.9459
298.15 K, m1 = 0.2162	0.9534
308.15 K, m1 = 0.04831	0.731
308.15 K, m1 = 0.08861	0.7438
308.15 K, m1 = 0.1735	0.7667
308.15 K, m1 = 0.2198	0.7794
308.15 K, m1 = 0.2655	0.7915
308.15 K, m1 = 0.3962	0.8261
318.15 K, m1 = 0.04911	0.6052
318.15 K, m1 = 0.08886	0.6122
318.15 K, m1 = 0.1735	0.6267
318.15 K, m1 = 0.2196	0.6354
318.15 K, m1 = 0.2658	0.6432
318.15 K, m1 = 0.3964	0.6658

O [water] + [Cl][Cd][Cl]
m2 = 0
Details	viscosity [mPa·s]
288.15 K	1.138
298.15 K	0.8903
308.15 K	0.7195
318.15 K	0.5963
